# Earlier results, collected in paper PMC9217999 (Targeted Oncology, 2022).
# Legend:
# Settings in all cases: cited from earlier work
# NF1 and inoperable PN = test system: NF1 and inoperable PN
# recurrent/refractory LGG = test system: recurrent/refractory LGG
# NF1-associated PN = test system: NF1-associated PN
SMILES,Confirmed PR rate (NF1 and inoperable PN) [%],PR rate (NF1 and inoperable PN) [%],Stable disease (NF1 and inoperable PN) [%],"PR (bidimensional measurements on T2/FLAIR) (recurrent/refractory LGG; 5/25, four with BRAF aberrations) [%]",2-year PFS (recurrent/refractory LGG) [%],Responses ongoing (NF1-associated PN; 10/12 responses) [%],"Patients with PR (NF1-associated PN; 12/26 patients, preliminary data) [%]"
Cn1cnc2c(F)c(Nc3ccc(Br)cc3Cl)c(C(=O)NOCCO)cc21 [selumetinib],68,74,12,20,69,–,–
CC(=O)Nc1cccc(-n2c(=O)n(C3CC3)c(=O)c3c(Nc4ccc(I)cc4F)n(C)c(=O)c(C)c32)c1 [trametinib],–,–,–,–,–,83,46
